Data on 36 molecules can be found in patent US10577373B2, “TYK2 inhibitors and uses thereof” (Nimbus Lakshmi, Inc., priority 2017, dated 2020).

Structures are written as SMILES. Where two headings read alike, the source gives them in different places. Some results are limits rather than exact numbers.

Experiment [1] concerns IL-12 induced STAT4 phophorylation mediated by Tyk2/JAK2 (heterodimeric complex). Put plainly: IL-12 Induced pSTAT4 in Human PBMC. The format is cell-based. Conditions: 1.7 ng/mL IL-12. From the text:
The IL-12 Induced pSTAT4 assay evaluates the inhibition of IL-12 induced STAT4 phophorylation mediated by Tyk2/JAK2 (heterodimeric complex).

For experiment [2], the system named is GM-CSF induced STAT5 phosphorylation mediated by the JAK2/JAK2 homdimeric complex. Nature of the experiment: GM-CSF Induced pSTAT5 in Human PBMC.
Source text: Human PBMC are isolated from buffy coat and are stored frozen for assays as needed.
[3] abbreviates: read-out: PBMC_GMCSF_pSTAT5 IC50, human PBMC, GM-CSF 5 ng/mL for 20 minutes, pSTAT5.
[4] abbreviates: Homo sapiens, PBMC, 20 min, read-out: PBMC_GMCSF_pSTAT5 IC50, human PBMC, GM-CSF 5 ng/mL for 20 minutes, pSTAT5.

On to `CNc1cc(Nc2cccn([C@H]3CC[C@](C)(OC)CC3)c2=O)nc2c(C(=O)N[C@@H]3CC[C@@H]3O)cnn12` [I-722, N-((1S,2R)-2-hydroxycyclobutyl)-5-((1-((1R,4S)-4-methoxy-4-methylcyclohexyl)-2-oxo-1,2-dihydropyridin-3-yl)amino)-7-(methylamino)pyrazolo[1,5-a]pyrimidine-3-carboxamide], for which the IC50 in experiment [1] is less than 100 nM; in experiment [2] (setting [3]), more than 12500 nM.

On to `CNc1cc(Nc2cccn([C@H]3CCCOC3)c2=O)nc2c(C(=O)N[C@@H]3CC[C@H]3O)cnn12` [I-725], for which the 50% inhibitory concentration (IC50) in experiment [1] is less than 100 nM; in experiment [2] (setting [4]) it was more than 2500 nM.

On to `CNc1cc(Nc2cc(Cl)cn(C3CCCN(C)C3)c2=O)nc2c(C(=O)NC3CC3)cnn12` (stereo not drawn) [I-740], for which the IC50 in experiment [1] was less than 100 nM; in experiment [2] (setting [4]), more than 2500 nM.

With `CNc1cc(Nc2cccn(-c3cccnc3)c2=O)nc2c(C(=O)NC3CC3)cnn12` [I-747], the 50% inhibitory concentration (IC50) is 100 to 500 nM in experiment [1] and more than 12500 nM in experiment [2] (setting [4]).

In the case of `CNc1cc(Nc2cccn(-c3cccnc3)c2=O)nc2c(C(=O)N[C@@H]3C[C@@H]3F)cnn12` [I-748], the 50% inhibitory concentration (IC50) in experiment [1] is less than 100 nM; in experiment [2] (setting [4]), more than 2500 nM.

On to `CNc1cc(Nc2cccc3ocnc23)nc2c(C(=O)NCC(C)(C)CO)cnn12` [I-750], for which the concentration for half-maximal inhibition (IC50) was less than 100 nM in experiment [1] and more than 2500 nM in experiment [2] (setting [4]).

Take `CNc1cc(Nc2cccn([C@@H]3CCCOC3)c2=O)nc2c(C(=O)N[C@H]3CC[C@H]3O)cnn12` [I-751]: the results for the half-inhibitory concentration (IC50) in experiment [1] and in experiment [2] (setting [4]) were less than 100 nM and more than 12500 nM, respectively.

On to `CNc1cc(Nc2cc(Cl)cn(C3CCCN(C)C3)c2=O)nc2c(C(=O)N[C@@H]3C[C@@H]3F)cnn12` (stereo partly drawn) [I-759], for which the IC50 is less than 100 nM in experiment [1] and more than 50000 nM in experiment [2] (setting [4]).

As to `CNc1cc(Nc2cccn(-c3cnco3)c2=O)nc2c(C(=O)N[C@@H]3C[C@@H]3F)cnn12` [I-762], the concentration for half-maximal inhibition (IC50) in experiment [1] was less than 100 nM; in experiment [2] (setting [4]), more than 2500 nM.

Take `CNc1cc(Nc2cccc3ocnc23)nc2c(C(=O)N[C@@H]3CC[C@@H]3O)cnn12` [I-770]: the 50% inhibitory concentration (IC50) in experiment [1] is less than 100 nM; in experiment [2] (setting [3]), more than 2500 nM.

`CNc1cc(Nc2cc(Cl)cn([C@H]3CCCOC3)c2=O)nc2c(C(=O)N[C@@H]3C[C@@H]3F)cnn12` [I-772]: the values for the concentration for half-maximal inhibition (IC50) in experiment [1] and in experiment [2] (setting [4]) were less than 100 nM and more than 300 nM, respectively.

Turning to `CNc1cc(Nc2cc(Cl)cn([C@@H]3CCCOC3)c2=O)nc2c(C(=O)N[C@@H]3C[C@@H]3F)cnn12` [I-773], the IC50 in experiment [1] was less than 100 nM; in experiment [2] (setting [4]), more than 12500 nM.

For `CNc1cc(Nc2cc(Cl)cn([C@H]3CCCOC3)c2=O)nc2c(C(=O)NC3CC3)cnn12` [I-782], the IC50 was less than 100 nM in experiment [1] and more than 50000 nM in experiment [2] (setting [4]).

Regarding `CNc1cc(Nc2cc(Cl)cn([C@@H]3CCCOC3)c2=O)nc2c(C(=O)NC3CC3)cnn12` [I-783], the half-maximal inhibitory concentration (IC50) is less than 100 nM in experiment [1] and more than 50000 nM in experiment [2] (setting [4]).

`CNc1cc(Nc2cc(Cl)cn(C3CCN(C)CC3)c2=O)nc2c(C(=O)N[C@@H]3C[C@@H]3F)cnn12` [I-789]: the IC50 was less than 100 nM in experiment [1] and more than 12500 nM in experiment [2] (setting [4]).

For `CNc1cc(Nc2cccn(-c3ocnc3C)c2=O)nc2c(C(=O)N[C@@H]3C[C@@H]3F)cnn12` [I-790], the values for the half-maximal inhibitory concentration (IC50) in experiment [1] and in experiment [2] (setting [4]) were less than 100 nM and more than 12500 nM, respectively.

`CCONC(=O)c1cnn2c(NC)cc(Nc3cccn(-c4ncccc4F)c3=O)nc12` [I-798, N-ethoxy-5-((3′-fluoro-2-oxo-2H-[1,2′-bipyridin]-3-yl)amino)-7-(methylamino) pyrazolo[1,5-a]pyrimidine-3-carboxamide]: the IC50 in experiment [1] was […]; in experiment [2] (Homo sapiens, PBMC, 20 min, read-out: PBMC_GMCSF_pSTAT5 IC50) it was more than 50000 nM.

Regarding `CNc1cc(Nc2cccn(-c3ccccn3)c2=O)nc2c(C(=O)N[C@H]3CC[C@H]3O)cnn12` [I-805], the concentration for half-maximal inhibition (IC50) in experiment [1] was less than 100 nM; in experiment [2] (setting [4]) it was more than 12500 nM.

`CNc1cc(Nc2cccn([C@H]3[C@@H]4COC[C@@H]43)c2=O)nc2c(C(=O)N[C@@H]3C[C@@H]3F)cnn12` [I-811]: the IC50 is less than 100 nM in experiment [1] and more than 50000 nM in experiment [2] (setting [4]).

Take `CNc1cc(Nc2cc(Cl)cn([C@@H]3CCCN(C)C3)c2=O)nc2c(C(=O)NC3CC3)cnn12` [I-819]: the concentration for half-maximal inhibition (IC50) in experiment [1] is less than 100 nM; in experiment [2] (setting [4]), more than 50000 nM.

For the molecule `CNc1cc(Nc2cc(Cl)cn([C@H]3CCCN(C)C3)c2=O)nc2c(C(=O)NC3CC3)cnn12` [I-820], the IC50 in experiment [1] is less than 100 nM; in experiment [2] (setting [4]), more than 12500 nM.

Regarding `CNc1cc(Nc2cc(Cl)cn(C3CCOCC3)c2=O)nc2c(C(=O)N[C@@H]3CC[C@H]3O)cnn12` [I-825], the IC50 was less than 100 nM in experiment [1] and more than 50000 nM in experiment [2] (setting [4]).

Consider `CNc1cc(Nc2cccc(N3CCO[C@]4(CCOC4)C3)n2)nc2c(C(=O)NC3CC3)cnn12` [I-827], for which the half-maximal inhibitory concentration (IC50) in experiment [1] is 100 to 500 nM; in experiment [2] (setting [4]), more than 50000 nM.

Turning to `CNc1cc(Nc2cccn([C@H]3CC[C@H](OC)CC3)c2=O)nc2c(C(=O)NC[C@H](C)CO)cnn12` [I-829], the half-maximal inhibitory concentration (IC50) in experiment [1] was less than 100 nM; in experiment [2] (setting [4]), more than 50000 nM.

Take `CNc1cc(Nc2cccc3ocnc23)nc2c(C(=O)N[C@H]3COC[C@H]3O)cnn12` [I-834]: the results for the half-inhibitory concentration (IC50) in experiment [1] and in experiment [2] (setting [4]) were 100 to 500 nM and more than 50000 nM, respectively.

In the case of `CNc1cc(-c2cn(CCN3CCCCC3)c3ncccc23)nc2c(C(=O)N[C@@H]3CC[C@H]3O)cnn12` [I-837], the IC50 in experiment [1] is less than 100 nM; in experiment [2] (setting [4]) it was more than 12500 nM.

Take `CNc1cc(Nc2cccn([C@@H]3CCC[C@H](OC)C3)c2=O)nc2c(C(=O)N[C@@H]3C[C@@H]3F)cnn12` [I-840]: the results for the IC50 in experiment [1] and in experiment [2] (setting [4]) were less than 100 nM and more than 50000 nM, respectively.

Consider `CNc1cc(-c2cn(C(C)C)c3ncccc23)nc2c(C(=O)N[C@@H]3COC[C@@H]3O)cnn12` [I-842, N-((3R,4R)-4-hydroxytetrahydrofuran-3-yl)-5-(1-isopropyl-1H-pyrrolo[2,3-b]pyridin-3-yl)-7-(methylamino)pyrazolo[1,5-a]pyrimidine-3-carboxamide], for which the IC50 was less than 100 nM in experiment [1] and more than 50000 nM in experiment [2] (setting [4]).

For the molecule `CNc1cc(Nc2cccn(C3CCN(CCF)CC3)c2=O)nc2c(C(=O)NCC(C)(C)CO)cnn12` [I-847], the half-maximal inhibitory concentration (IC50) was 100 to 500 nM in experiment [1] and more than 50000 nM in experiment [2] (setting [4]).

In the case of `CNc1cc(Nc2cccn(C3CCCN(CCF)C3)c2=O)nc2c(C(=O)N[C@@H]3C[C@@H]3F)cnn12` (stereo partly drawn) [I-849], the IC50 in experiment [1] is 100 to 500 nM; in experiment [2] (setting [4]), more than 50000 nM.

Turning to `CNc1cc(Nc2cc(Cl)cn([C@H]3CCCN(C)C3)c2=O)nc2c(C(=O)N[C@@H]3C[C@@H]3F)cnn12` [I-854], the half-maximal inhibitory concentration (IC50) is less than 100 nM in experiment [1] and more than 50000 nM in experiment [2] (setting [4]).

`CNc1cc(Nc2cccc3ocnc23)nc2c(C(=O)N[C@@H]3CC[C@H]3O)cnn12` [I-857]: the results for the IC50 in experiment [1] and in experiment [2] (setting [3]) were 100 to 500 nM and more than 50000 nM, respectively.

In the case of `CNc1cc(Nc2cccc(-c3cn(C)nc3F)n2)nc2c(C(=O)N[C@@H]3C[C@@H]3F)cnn12` [I-860], the IC50 is less than 100 nM in experiment [1] and more than 50000 nM in experiment [2] (setting [4]).

Take `CNc1cc(Nc2cc(Cl)cn(C3CCN(C)CC3)c2=O)nc2c(C(=O)NC3CC3)cnn12` [I-883]: the IC50 in experiment [1] is less than 100 nM; in experiment [2] (setting [4]), more than 12500 nM.

Regarding `CNc1cc(-c2cn(CCN3CCOCC3)c3ncccc23)nc2c(C(=O)N[C@H]3CC[C@@H]3OC)cnn12` [I-886], the IC50 in experiment [1] is less than 100 nM; in experiment [2] (setting [4]), more than 300 nM.

Take `CNC(=O)c1occc1Nc1cc(NC)n2ncc(C(=O)NC3CC3)c2n1` [I-887]: the half-inhibitory concentration (IC50) was less than 100 nM in experiment [1] and more than 50000 nM in experiment [2] (setting [4]).

Usually IC50 stands for the point on the concentration scale where inhibition reaches its midpoint.
